For data set [1], the system named is heterotopic HepG2 xenograft mouse model. In words: Comparative PET/CT biodistribution in heterotopic HepG2 xenograft mouse model. As to conditions: PET/CT. Format: in vivo. The protocol: After the confirmation of cell uptake and intracellular trapping of [U^13C]4-FDF, and the successful production of the radiofluorinated analog, the biodistribution of [^18F]4-FDF was evaluated in a heterotopic HepG2 xenograft mouse model and compared to the biodistribution of [^18F]6-FDF and [^18F]FDG. PET/CT images shown are the summed images from 20-45 min after intravenous injection of (FIG. 4A) [^18F]4-FDF, (FIG. 4B) [^18F]6-FDF, or (FIG. 4C) [^18F]FDG. Sagittal, coronal, and maximum intensity projection (MIP) are shown, in addition to axial sections at the level of the brain, heart, liver/kidneys, and hips. […] Purple represents an increase in AUC and blue represents a decrease in AUC. The values are normalized fold-change in AUC.
Eight-week-old female nu/nu mice were inoculated with 10×10^6 HepG2 cells suspended in 50% Matrigel:DMEM subcutaneously under the left shoulder. Within 3-weeks of implantation, mice were imaged by PET/CT.
PET/CT Imaging. PET/CT imaging was carried out on a Bruker Si78PET/CT scanner with a 4-position hotel having adjustable isoflurane and respiratory monitoring for each position (Bruker USA). Tail veins were catheterized, and an anatomical CT was acquired over the whole of the mouse bodies using the “rat” settings. PET acquisition was started just prior to a bolus i.v. injection of approximately 200 μCi of radiotracer. Dynamic scans were acquired in list mode format over 45 min and sorted into 16×0.5-mm sinogram bins for image reconstruction (4×15 s, 4×60 s and 8×300 s). Iterative reconstruction was performed using 3D ordered-subsets expectation maximization (3D-OSEM) followed by fast maximum a posteriori (fastMAP) using Paravision 360 software v.3.4 (Bruker, USA). Four-mouse images were split into individual mice, and the bed was removed using PMOD v (Bruker, USA). VivoQuant v.2022 (InviCRO) was used for visualization of radioradiotracer uptake in tissues, to define the three-dimensional (3D) volumes of interest (VOI) and for 3D-visualisation to create volume rendering technique images. The count densities were averaged for all volumes of interest at each time point to obtain a time versus activity curve (TAC). Tumor and tissue TACs were normalized to injected dose, measured by a CRC-15 PET dose calibrator (Capintec, Inc., NJ, USA), and expressed as percentage injected dose per cubic centimeter of tissue (% ID/cc).

Data set [2] deals with mouse model of systemic inflammation (LPS). In words: [^18F]4-FDF PET/CT in LPS mouse model of systemic inflammation. Format: in vivo. The protocol:
In order to further investigate whether a fructolytic switch occurs in inflammatory neural and cardiac tissues, a mouse model of systemic inflammation was examined. [^18F]4-FDF PET/CT was performed on mice receiving vehicle (FIG. 5A) or bacterial cell wall LPS (FIG. 5B) 24 hr after injection. Sagittal, coronal, MIP, and axial sections of the brain, heart and muscle are shown. Time-activity curves (TAC) for brain (FIG. 5C), heart (FIG. 5D), and muscle (FIG. 5E) are shown for mice receiving vehicle (−LPS) or LPS (+LPS). Solid lines are the means and dotted lines are standard deviation. […] The plots show individual data points (circles), mean (long line) and s.d. (vertical line). * p<0.05 by ANOVA followed by Tukey's test.
Mice receiving saline vehicle (FIG. 5A) or intraperitoneal bacterial cell wall lipopolysaccharide (LPS), as previously described (FIG. 5B; Shrum, B. et al., 2014), were imaged by [^18F]4-FDF PET/CT 24 hr after injection. […] The low uptake of [^18F]4-FDF in healthy brain and heart contributed to an increased signal-to-noise ratio for the mapping of cardio- and neuroinflammation in tissues that are otherwise highly glycolytic and have high [^18F]FDG uptake in the absence of disease (FIG. 4C).
Eight-week-old male Balb/C mice received 5 mg/kg LPS through intraperitoneal injection 24-hr prior to planned PET/CT imaging. Mice were supported by being warmed, and by being given fluids subcutaneously 12 hr after LPS injection. The mice were monitored and scored for severity of response to LPS as described previously (Shrum, B. et al., 2014).
PET/CT Imaging. PET/CT imaging was carried out on a Bruker Si78PET/CT scanner with a 4-position hotel having adjustable isoflurane and respiratory monitoring for each position (Bruker USA). Tail veins were catheterized, and an anatomical CT was acquired over the whole of the mouse bodies using the “rat” settings. […] Tumor and tissue TACs were normalized to injected dose, measured by a CRC-15 PET dose calibrator (Capintec, Inc., NJ, USA), and expressed as percentage injected dose per cubic centimeter of tissue (% ID/cc).

The nature of data set [3]: Image-based dosimetry using OLINDA software. Format: in vivo. To be noted: all tissues, Balb/C mice, relative to [^18F]-2-fluoro-2-deoxyglucose. The protocol: Image-based dosimetry was evaluated in Balb/C mice (n=4) using OLINDA software. […] The bottom plot is a zoom of the y-axis from the top plot.
Data set [4] has as its system concussed mouse brain. The data set is described as follows: PET/CT imaging of mice after closed-head concussive impact. Format: in vivo, Balb/C mice. The protocol: Arrowhead indicates approximate location and direction of concussive blow. Mice were either left without head impact (Naïve), or received a single closed-head impact vertically at bregma 48 hrs prior to imaging. […] Average images from 20-40 min after the commencement of the scan are shown.

[5] abbreviates: HepG2 xenograft mice, intravenous injection.
Setting [6] is: 5 mg/kg LPS i.p., imaged 24 hr after injection, vs vehicle.

Molecules are shown by their SMILES.

The values that follow come from patent US20260131033A1, “RADIOLABELED FRUCTOSE DERIVATIVES FOR MEDICAL IMAGING” (Yellowbird Diagnostics Inc., priority 2023, published 2026).

As to `OC[C@H]1OC(O)(CO)[C@@H](O)[C@@H]1[18F]` (stereo partly shown) [[^18F]4-FDF, [^18F]-4-fluoro-4-deoxyfructose], the bone uptake in data set [1] (HepG2 xenograft mice) was less than 2 % ID/g. Moreover, in data set [1] (setting [5]), the excretion route result was “renal exceeding hepatobiliary excretion” and the “tumor accumulation / pattern of radiotracer retention” value was “accumulate in the tumor”. The “accumulation in normal mouse tissues” value in data set [1] (compared with [^18F]FDG) is “lower than that observed with [^18F]FDG”. Moreover, in data set [2] (setting [6]), the “brain uptake following LPS treatment” value was “significant increase” and the “cardiac uptake following LPS treatment” value was “significant increase”. Besides, the “uptake in healthy brain and heart” value in data set [2] (healthy brain and heart, PET/CT) is reported as “low uptake”. In addition, in data set [3], the organ dose deposition result was “less than or equal to the dose deposition for [^18F]-2-fluoro-2-deoxyglucose”. In addition, the “retention in naïve brain” value in data set [4] (naïve Balb/C mice, average images 20-40 min) is “limited retention”. In addition, the “brain retention following concussion” value in data set [4] (single closed-head impact at bregma 48 h prior to imaging, images 20-40 min) was “enhanced radiotracer retention”.
